Patent publication US9701556B1, “Compositions, methods, and systems for reducing contamination” (priority 2004, dated 2017)
Where “and” joins values, the source holds several entries; their conditions need not be identical. Identical values can stand only once.

Tests used:
heterotrophic bacteria = test: Disinfection of wastewater with chelated iron compounds, total heterotrophic bacteria counts; format: cell-based; details: for Test 1 CFUs/ml, 19.8 ppm H2O2 6 ppm Fe-Chelant / Test 2 CFUs/ml, 39.6 ppm H2O2 12 ppm Fe-Chelant / Test 3 CFUs/ml, 12 ppm Fe-Chelant: 30 minutes, raw average 18,188 CFUs; for Test 3 CFUs/ml, 12 ppm Fe-Chelant: chelant alone, no H2O2; for disinfection effect, in words: compared with hydrogen peroxide alone
Procedure: A 10 gallon sample of wastewater from the Massaponax Wastewater Plant was collected and allowed to sit undisturbed for thirty minutes. The clarified supernatant was then pored off of the top of the settled solids within the sample. The supernatant was then mixed and four samples were collected to determine untreated heterotrophic bacteria counts. […] were dissolved in distilled water at 0.4334M. Ferric chloride was added in amounts to achieve saturation of chelant sites on the respective chelants. […] Twenty individual liter samples of supernatant were then decanted from the well-mixed wastewater sample for testing. Four chelated iron products with peroxide were tested at two test concentrations and compared to samples receiving peroxide only and iron chelate only. […] Individual samples were dosed with the respective additives, mixed with a magnetic stir bar and allowed to react for 30 minutes. Samples were then decanted to sterile sample containers containing sodium thiosulfate to stop the oxidation process and preserve the sample. Samples were then placed in a refrigerator until all samples were finished. Samples were packaged in a standard cooler with ice packs and sent via overnite delivery to ProChem Labs in Lynchburg, Va. for analysis for total heterotrophic bacteria counts.

[1] = Treatment of sulfides in municipal wastewater with ferric chelants and ozone; details: 4 ppm ferric chelant where added; for sulfide remaining: ozone at ~13.4 ppm; for Overall total percentage of sulfide reduction: ozone
[2] = Treatment of sulfides in municipal wastewater with ferric chelants and hydrogen peroxide; details: for sulfide reduction after 15 minutes: 2.5:1.0 peroxide to sulfide, 105.8 ppm hydrogen peroxide, 20 ppm chelant where added, peroxide alone averaged; for sulfide treatment after 15 minutes: 37.8 ppm hydrogen peroxide, 12 ppm chelant where added; for Sulfide Remaining, Dose 1 12 ppm Chelant / Sulfide Remaining, Dose 2 6 ppm Chelant: 37.8 ppm H2O2, start 25.4 ppm sulfide; for Sulfide Remaining, Dose 1 20 ppm Chelant / Sulfide Remaining, Dose 2 10 ppm Chelant: 105.8 ppm H2O2, start 42.3 ppm sulfide; for Percentage of Sulfide Treated, Dose 1 12 ppm Chelant 37.8 ppm H2O2 / Percentage of Sulfide Treated, Dose 2 6 ppm Chelant 37.8 ppm H2O2 / Percentage of Sulfide Treated, Dose 1 20 ppm Chelant 105.8 ppm H2O2 / Percentage of Sulfide Treated, Dose 2 10 ppm Chelant 105.8 ppm H2O2: after 30 minutes; for Percentage of Sulfide Treated, Dose 1 12 ppm Chelant 37.8 ppm H2O2 / Percentage of Sulfide Treated, Dose 2 6 ppm Chelant 37.8 ppm H2O2: 1.5:1.0 ratio of peroxide to sulfide; for Percentage of Sulfide Treated, Dose 1 20 ppm Chelant 105.8 ppm H2O2 / Percentage of Sulfide Treated, Dose 2 10 ppm Chelant 105.8 ppm H2O2: 2.5:1.0 ratio of peroxide to sulfide; for sulfide treatment compared with hydrogen peroxide alone, in words: over 30 minutes of treatment
[3] = start 13.70, contact time 5 minutes
[4] = start 13.70, contact time 10 minutes
[5] = start 13.70, contact time 20 minutes
[6] = Series One, contact time 5 minutes, listed as Ferric NTA
[7] = Series Two, 20 ppm chelant, no H2O2, start 42.3 ppm sulfide, contact time 30 minutes
[8] = Series Two, contact time 5 minutes
[9] = Series Two, contact time 15 minutes
[10] = Series Two, contact time 30 minutes
[11] = Series One, contact time 5 minutes
[12] = Series One, contact time 15 minutes
[13] = Series One, contact time 30 minutes
[14] = Series One, no H2O2, start 25.4 ppm sulfide, contact time 30 minutes

Row | Molecule | Test 1 CFUs/ml, 19.8 ppm H2O2 6 ppm Fe-Chelant (heterotrophic bacteria) | Test 2 CFUs/ml, 39.6 ppm H2O2 12 ppm Fe-Chelant (heterotrophic bacteria) | Test 3 CFUs/ml, 12 ppm Fe-Chelant (heterotrophic bacteria) | disinfection effect, in words (heterotrophic bacteria) | Overall total percentage of sulfide reduction [1] | Sulfide Remaining, Dose 4 Chelant Only [2, 7] | Sulfide Remaining, Dose 1 20 ppm Chelant [2, 8] | Sulfide Remaining, Dose 2 10 ppm Chelant [2, 8] | Sulfide Remaining, Dose 1 20 ppm Chelant [2, 9] | Sulfide Remaining, Dose 2 10 ppm Chelant [2, 9] | Sulfide Remaining, Dose 1 20 ppm Chelant [2, 10] | Sulfide Remaining, Dose 2 10 ppm Chelant [2, 10] | Percentage of Sulfide Treated, Dose 1 12 ppm Chelant 37.8 ppm H2O2 [2] | Percentage of Sulfide Treated, Dose 2 6 ppm Chelant 37.8 ppm H2O2 [2] | Percentage of Sulfide Treated, Dose 1 20 ppm Chelant 105.8 ppm H2O2 [2] | Percentage of Sulfide Treated, Dose 2 10 ppm Chelant 105.8 ppm H2O2 [2] | sulfide treatment compared with hydrogen peroxide alone, in words [2] | Sulfide Remaining, Dose 1 12 ppm Chelant [2, 11] | Sulfide Remaining, Dose 2 6 ppm Chelant [2, 11] | Sulfide Remaining, Dose 1 12 ppm Chelant [2, 12] | further results
1 | O=C([O-])CN(CC(=O)[O-])CC(=O)[O-].[Fe+3] [Fe-NTA] | 370 CFUs/ml | 75 CFUs/ml | 18,300 CFUs/ml | very little effect on viable cells beyond that exhibited by hydrogen peroxide alone | 91% | 41.0 ppm | 23.3 ppm | 26.7 ppm | 12.6 ppm | 16.3 ppm | 2.8 ppm | 4.2 ppm | 78.3 | 68.9 | 93.4 | 90.0 | noticeably better | – | – | – | sulfide remaining [1, 3]: 3.40 ppm; sulfide remaining [1, 4]: 1.90 ppm; sulfide remaining [1, 5]: 1.30 ppm; Overall total percentage of sulfide reduction ([1]; listed as ferric NTA): 91%; sulfide reduction after 15 minutes [2]: 70.2%; sulfide treatment after 15 minutes [2]: 73%; Sulfide Remaining, Dose 1 12 ppm Chelant [2, 6]: 15.2 ppm and 20.0 ppm; Sulfide Remaining, Dose 2 6 ppm Chelant [2, 6]: 15.9 ppm and 20.3 ppm; Sulfide Remaining, Dose 2 6 ppm Chelant ([2]; Series One, contact time 15 minutes, listed as Ferric NTA): 12.6 ppm and 16.4 ppm; Sulfide Remaining, Dose 2 6 ppm Chelant ([2]; Series One, contact time 30 minutes, listed as Ferric NTA): 7.9 ppm and 14.9 ppm; Sulfide Remaining, Dose 4 Chelant Only ([2]; Series One, no H2O2, start 25.4 ppm sulfide, contact time 30 minutes, listed as Ferric NTA): 24.6 ppm and 25.2 ppm
2 | O=C([O-])CN(CCN(CC(=O)[O-])CC(=O)[O-])CC(=O)[O-].[Fe+3] [Fe-EDTA] | 360 CFUs/ml | 59 CFUs/ml | 18,200 CFUs/ml | very little effect on viable cells beyond that exhibited by hydrogen peroxide alone | 64% | – | – | – | – | – | – | – | 68.5 | 64.2 | 87.5 | 83.7 | noticeably better | – | – | – | Overall total percentage of sulfide reduction ([1]; listed as ferric EDTA): 64%; sulfide reduction after 15 minutes [2]: 60%; sulfide treatment after 15 minutes [2]: 61%
3 | Ferric Ascorbate | – | – | – | – | – | 41.8 ppm | 26.9 ppm | 27.2 ppm | 17.7 ppm | 19.7 ppm | 10.8 ppm | 11.9 ppm | 62.2 | 59.0 | 74.5 | 71.9 | some modest improvement over hydrogen peroxide treatment alone | 16.6 ppm | 17.2 ppm | 11.8 ppm | Sulfide Remaining, Dose 2 6 ppm Chelant [2, 12]: 12.4 ppm; Sulfide Remaining, Dose 1 12 ppm Chelant [2, 13]: 9.6 ppm; Sulfide Remaining, Dose 2 6 ppm Chelant [2, 13]: 10.4 ppm; Sulfide Remaining, Dose 4 Chelant Only [2, 14]: 24.6 ppm
4 | O=C([O-])CN(CCO)CC(=O)[O-].[Fe+3] [Fe-HEIDA] | 1350 CFUs/ml | 84 CFUs/ml | 16,700 CFUs/ml | very little effect on viable cells beyond that exhibited by hydrogen peroxide alone | 60% | – | – | – | – | – | – | – | 44.1 | 41.3 | 69.5 | 66.9 | did not perform well | – | – | – | Overall total percentage of sulfide reduction ([1]; listed as ferric HEIDA): 60%
5 | Ferric Gallate | – | – | – | – | – | 43.0 ppm | 29.2 ppm | 27.8 ppm | 20.2 ppm | 22.2 ppm | 13.2 ppm | 13.1 ppm | 59.1 | 55.9 | 68.7 | 69.0 | did not perform well overall | 18.4 ppm | 18.0 ppm | 14.0 ppm | Sulfide Remaining, Dose 2 6 ppm Chelant [2, 12]: 13.6 ppm; Sulfide Remaining, Dose 1 12 ppm Chelant [2, 13]: 10.4 ppm; Sulfide Remaining, Dose 2 6 ppm Chelant [2, 13]: 11.2 ppm; Sulfide Remaining, Dose 4 Chelant Only [2, 14]: 24.7 ppm
6 | O=[O+][O-] [Ozone only, Ozone] | – | – | – | – | 46% | – | – | – | – | – | – | – | – | – | – | – | – | – | – | – | sulfide remaining [1, 3]: 8.05 ppm; sulfide remaining [1, 4]: 7.50 ppm; sulfide remaining [1, 5]: 7.40 ppm
7 | O=C([O-])CC(O)(CC(=O)[O-])C(=O)[O-].[Fe+3] [Ferric Citrate] | – | – | – | – | – | 42.0 ppm | 30.1 ppm | 29.9 ppm | 19.6 ppm | 20.2 ppm | 14.3 ppm | 12.9 ppm | 58.7 | 51.2 | 66.2 | 69.5 | – | 17.8 ppm | 18.1 ppm | 14.1 ppm | Sulfide Remaining, Dose 2 6 ppm Chelant [2, 12]: 15.8 ppm; Sulfide Remaining, Dose 1 12 ppm Chelant [2, 13]: 10.5 ppm; Sulfide Remaining, Dose 2 6 ppm Chelant [2, 13]: 12.4 ppm; Sulfide Remaining, Dose 4 Chelant Only [2, 14]: 25.0 ppm
